According to DBAASP:
Converted amounts (≈) assume the structure as drawn.

How the values were obtained:
Assay in all cases: ≥ marks a high value that may be exact or a test limit, other limits are often not marked, values filed in µg/mL are converted to µM
[1] = test system: Bacillus subtilis ATCC 6633
[2] = test system: Staphylococcus aureus ATCC 6538
[3] = test system: Escherichia coli ATCC 8739
[4] = test system: Staphylococcus aureus ATCC 43300
[5] = test system: Escherichia coli JW0013
[6] = test system: Staphylococcus aureus ATCC 25923

`CC[C@H](C)[C@@H]1NC(=O)[C@H](CCCCN)NC(=O)[C@@H](NC(=O)[C@H](CO)NC(=O)[C@H](CC(C)C)NC(=O)[C@H](C)NC(=O)[C@H](CC(N)=O)NC(=O)[C@H](CC(C)C)NC(=O)[C@@H](NC(=O)[C@H](CO)NC(=O)[C@@H](NC(=O)CNC(=O)[C@H](C)NC(=O)[C@H](CO)NC(=O)[C@H](CCCCN)NC(=O)[C@H](C)NC(=O)[C@H](C)NC(=O)[C@H](CC(N)=O)NC(=O)[C@@H](NC(=O)[C@H](C)NC(=O)[C@H](CC(C)C)NC(=O)[C@H](CC(N)=O)NC(=O)[C@H](CCCCN)NC(=O)[C@H](Cc2ccccc2)NC(=O)[C@@H](NC(=O)[C@H](CC(=O)O)NC(=O)[C@H](CC(C)C)NC(=O)[C@H](CC(C)C)NC(=O)[C@@H](N)CO)[C@@H](C)O)C(C)C)C(C)C)C(C)C)CSSC[C@@H](C(=O)O)NC(=O)[C@H]([C@@H](C)O)NC(=O)[C@H](CCCN=C(N)N)NC(=O)[C@H](CO)NC1=O` [SLLDTFKNLAVNAAKSAGVSVLNALSCKISRTC] showed an MIC [1] of 12.5 µM (≈ 42.4 µg/mL), an MIC [2] of 12.5 µM (≈ 42.4 µg/mL) and an MIC [3] of no less than 50 µM. It also gave an MIC [4] of 100 µM (≈ 339 µg/mL).

`CC[C@H](C)[C@H](NC(=O)[C@H](CC(C)C)NC(=O)[C@H](CC(C)C)NC(=O)[C@H](CC(=O)O)NC(=O)[C@H](CCCCN)NC(=O)[C@@H](NC(=O)[C@@H](NC(=O)CNC(=O)[C@H](CC(C)C)NC(=O)[C@@H](NC(=O)[C@@H](N)CO)C(C)C)[C@@H](C)O)C(C)C)C(=O)NCC(=O)N[C@@H](C)C(=O)NCC(=O)N[C@@H](CCCCN)C(=O)N[C@@H](CO)C(=O)N[C@@H](C)C(=O)N[C@@H](C)C(=O)N[C@@H](CCC(N)=O)C(=O)N[C@@H](CO)C(=O)N[C@H](C(=O)N[C@@H](CC(C)C)C(=O)N[C@H](C(=O)N[C@H](C(=O)N[C@@H](CC(C)C)C(=O)N[C@@H](CO)C(=O)N[C@H]1CSSC[C@@H](C(=O)O)NC(=O)[C@H](CO)NC(=O)[C@H](CC(N)=O)NC(=O)[C@H](CO)NC(=O)[C@H](CC(C)C)NC(=O)[C@H](CCCCN)NC1=O)[C@@H](C)O)[C@@H](C)O)C(C)C` [SVLGTVKDLLIGAGKSAAQSVLTTLSCKLSNSC] showed an MIC [2] of 25 µM (≈ 81.6 µg/mL) and an MIC [3] of no less than 50 µM.

Work on `CC[C@H](C)[C@H](NC(=O)[C@H](CCCN=C(N)N)NC(=O)[C@H](CCCN=C(N)N)NC(=O)[C@@H]1CCCN1C(=O)[C@@H]1CCCN1C(=O)[C@H](CCCN=C(N)N)NC(=O)[C@@H]1CCCN1C(=O)[C@H](CCCN=C(N)N)NC(=O)[C@@H]1CCCN1C(=O)[C@H](CCCN=C(N)N)NC(=O)[C@H](Cc1ccc(O)cc1)NC(=O)[C@H](Cc1cnc[nH]1)NC(=O)[C@H](CCCCN)NC(=O)[C@H](CCCCN)NC(=O)[C@H](CC(=O)O)NC(=O)[C@@H](N)C(C)C)C(=O)N[C@@H](Cc1ccc(O)cc1)C(=O)N[C@@H](CC(N)=O)C(=O)N[C@@H](CCCN=C(N)N)C(N)=O` [VDKKHYRPRPRPPRRIYNR] yielded an MIC [5] of 0.639 µM (≈ 1.6 µg/mL).

`CC[C@H](C)[C@H](NC(=O)[C@H](C)NC(=O)[C@H](CC(N)=O)NC(=O)[C@@H](N)CCSC)C(=O)N[C@@H](CC(N)=O)C(=O)N[C@@H](Cc1ccccc1)C(=O)N[C@H](C(=O)N[C@@H](CS)C(=O)N[C@H](C(=O)N[C@H](C(=O)N[C@@H](Cc1cnc[nH]1)C(=O)N[C@@H](CCCCN)C(=O)N[C@@H](CCCCN)C(=O)N[C@H](C(=O)N[C@@H](C)C(=O)N[C@H](C(=O)N[C@@H](CO)C(=O)N[C@H](C(=O)O)C(C)C)[C@@H](C)CC)C(C)C)C(C)C)[C@@H](C)O)[C@@H](C)O` [MNAINFTCTVHKKVAISV] showed an MIC [6] greater than 130 µM and an MIC [3] of no less than 130 µM.
